The results in this text go back to ChEMBL document CHEMBL3045147, “Synthesis and evaluation of a series of novel imidazolidinone analogues of 6-aminoflavone as anticancer and anti-inflammatory agents” (Med Chem Res, 2013).

Each structure is given as a SMILES string. ≈ marks a conversion by molar mass, not a printed value. Calls of active or inactive are those of the source. No cut-off for these calls is given here.

For orientation: IC50 means the midpoint of a concentration-inhibition curve. For orientation: inhibition in vivo means how much of the control response was suppressed.

In experiment [1] the test system is HeLa. Kind of experiment: Cytotoxicity against Homo sapiens (human) HeLa cells assessed as inhibition of cell viability by MTT assay. The experiment is classed as functional, cell-based.
The test system of experiment [2] is HeLa. Briefly: Cytotoxicity against Homo sapiens (human) HeLa cells assessed as inhibition of cell viability by SRB assay. The experiment is classed as functional, cell-based.
Experiment [3] concerns MDA-MB-435. Briefly: Cytotoxicity against Homo sapiens (human) MDA-MB-435 cells assessed as inhibition of cell viability by SRB assay. It is filed as functional, cell-based.
Experiment [4] relates to Rattus norvegicus. Briefly: Anti-inflammatory activity in Wistar Rattus norvegicus (rat) assessed as inhibition of carrageenan-induced paw edema at 100 mg/kg/day, po measured after 3 hr. The experiment is classed as functional.
Experiment [5] has as its system MDA-MB-435. Kind of experiment: Cytotoxicity against Homo sapiens (human) MDA-MB-435 cells assessed as inhibition of cell viability by MTT assay. It is filed as functional, cell-based.
Experiment [6] in a line: Anticancer activity against Mus musculus (mouse) EAC cells xenografted in albino mouse assessed as increase in body weight at 100 mg/kg/day administered for 9 days measured on day 15 (reference value: 58.81 +/-2.67%). The experiment is classed as functional, Ehrlich.
In experiment [7] the test system is HeLa. Briefly: Cell cycle arrest in Homo sapiens (human) HeLa cells assessed as accumulation of cells at Sub-G0 phase after 48 hr by FACS analysis (reference value: 1.15%). The experiment is classed as functional. On the technique in general: A flow cytometer gives signals particle by particle.
Experiment [8] in a line: Anticancer activity against Mus musculus (mouse) EAC cells xenografted in albino mouse assessed as increase in body weight at 100 mg/kg/day administered for 9 days measured on day 12 (reference value: 44.42 +/-2.82%). The experiment is classed as functional, Ehrlich.
The subject of experiment [9] is HeLa. Kind of experiment: Cytotoxicity against Homo sapiens (human) HeLa cells assessed as morphological changes after 24 hr by microscopic analysis. The experiment is classed as functional, cell-based.
Experiment [10] in a line: Anticancer activity against Mus musculus (mouse) EAC cells xenografted in albino mouse assessed as increase in median life span at 50 mg/kg/day administered for 9 days. It is filed as functional, Ehrlich.
A short description of experiment [11]: Anticancer activity against Mus musculus (mouse) EAC cells xenografted in albino mouse assessed as increase in median life span at 100 mg/kg/day administered for 9 days. The experiment is classed as functional, Ehrlich.
For experiment [12], the system named is MDA-MB-435. Briefly: Ratio of 6-aminoflavone IC50 to compound IC50 for Homo sapiens (human) MDA-MB-435 cells. The experiment is classed as functional.
The nature of experiment [13]: Anticancer activity against Mus musculus (mouse) EAC cells xenografted in albino mouse assessed as increase in body weight at 100 mg/kg/day administered for 9 days measured on day 6 (reference value: 16.31 +/-0.48%). It is filed as functional, Ehrlich.
Experiment [14] concerns HeLa. Briefly: Cell cycle arrest in Homo sapiens (human) HeLa cells assessed as accumulation of cells at G0/G1 phase after 48 hr by FACS analysis (reference value: 74.27%). The experiment is classed as functional.
Experiment [15] in a line: Anticancer activity against Mus musculus (mouse) EAC cells xenografted in albino mouse assessed as increase in body weight at 100 mg/kg/day administered for 9 days measured on day 9 (reference value: 34.31 +/-1.06%). The experiment is classed as functional, Ehrlich.
The test system of another experiment is Ehrlich. Briefly: Anticancer activity against Mus musculus (mouse) EAC cells xenografted in albino mouse assessed as decrease in ascites fluid volume at 50 to 100 mg/kg/day administered for 9 days. It is filed as functional, organism-based.
In experiment [16] the test system is HeLa. Kind of experiment: Ratio of 6-aminoflavone IC50 to compound IC50 for Homo sapiens (human) HeLa cells. The experiment is classed as functional.
The nature of experiment [17]: Anticancer activity against Mus musculus (mouse) EAC cells xenografted in albino mouse assessed as increase in body weight at 100 mg/kg/day administered for 9 days measured on day 3 (reference value: 4.56 +/-0.52%). It is filed as functional, Ehrlich.
A short description of experiment [18]: Anticancer activity against Mus musculus (mouse) EAC cells xenografted in albino mouse assessed as median survival time at 50 mg/kg/day administered for 9 days (reference value: 17 days). It is filed as functional, Ehrlich.
Experiment [19] is described as follows: Anticancer activity against Mus musculus (mouse) EAC cells xenografted in albino mouse assessed as increase in mean life span at 100 mg/kg/day administered for 9 days. It is filed as functional, Ehrlich.
The nature of experiment [20]: Anticancer activity against Mus musculus (mouse) EAC cells xenografted in albino mouse assessed as mean survival time at 100 mg/kg/day administered for 9 days (reference value: 17.33 +/-0.21 days). The experiment is classed as functional, Ehrlich.
Experiment [21] relates to HeLa. Kind of experiment: Cell cycle arrest in Homo sapiens (human) HeLa cells assessed as accumulation of cells at G2/M phase after 48 hr by FACS analysis (reference value: 18.65%). It is filed as functional.
The nature of experiment [22]: Anticancer activity against Mus musculus (mouse) EAC cells xenografted in albino mouse assessed as mean survival time at 50 mg/kg/day administered for 9 days (reference value: 17.33 +/-0.21 days). It is filed as functional, Ehrlich.
The nature of experiment [23]: Anticancer activity against Mus musculus (mouse) EAC cells xenografted in albino mouse assessed as increase in mean life span at 50 mg/kg/day administered for 9 days. The experiment is classed as functional, Ehrlich.
The subject of experiment [24] is HeLa. Kind of experiment: Cell cycle arrest in Homo sapiens (human) HeLa cells assessed as accumulation of cells at S phase after 48 hr by FACS analysis (reference value: 6.34%). It is filed as functional.
A short description of experiment [25]: Anticancer activity against Mus musculus (mouse) EAC cells xenografted in albino mouse assessed as median survival time at 100 mg/kg/day administered for 9 days (reference value: 17 days). The experiment is classed as functional, Ehrlich.
Experiment [26] has as its system Rattus norvegicus. Kind of experiment: Anti-inflammatory activity in Wistar Rattus norvegicus (rat) assessed as inhibition of carrageenan-induced paw edema at 50 mg/kg, po measured after 3 hr. It is filed as functional.

Turning to `COc1ccc(/C=C2/N=C(c3ccccc3)N(c3ccc4oc(-c5ccccc5)cc(=O)c4c3)C2=O)cc1`, the IC50 in the experiment on HeLa [1] was determined as 14.2 µg/mL (≈ 28.6 µM); with HeLa [2] it was 17.6 µg/mL (≈ 35.3 µM); with MDA-MB-435 [3], 21.7 µg/mL (≈ 43.6 µM); in the experiment with MDA-MB-435 [5] it was 18.5 µg/mL (≈ 37.1 µM). The inhibition in vivo at 100 mg/kg/day in the experiment with Rattus norvegicus [4] was found to be 45.1%.
On to `COc1ccc(/C=C2/N=C(c3ccccc3)N(c3ccc4oc(-c5ccccc5)cc(=O)c4c3)C2=O)cc1OC`, for which the Activity is given as 19.99% in [6]; 21.63% with HeLa [7]; 17.47% in [8]; 32.35% in experiment [10]; 35.29% in experiment [11]; 9.39% in [13]. For the same molecule, the Activity amounted to 36.8% with HeLa [14]; 13.63% in experiment [15]; 3.58% in experiment [17]; 32.72% in experiment [19]; 28.37% in the experiment with HeLa [21]; 28.87% in [23]. The Activity in the experiment with HeLa [24] is reported as 14.1%. Besides, the result with HeLa [9] was Active. Also, the “Ratio IC50” value in the experiment with MDA-MB-435 [12] and in the experiment on HeLa [16] was 5 each time. In addition, the IC50 came to 9.87 µg/mL (≈ 18.7 µM) with HeLa [1], 11.1 µg/mL (≈ 21 µM) in the experiment on HeLa [2], 11.9 µg/mL (≈ 22.6 µM) in the experiment on MDA-MB-435 [3] and 10.8 µg/mL (≈ 20.4 µM) in the experiment with MDA-MB-435 [5]. The inhibition in vivo at 100 mg/kg/day in the experiment with Rattus norvegicus [4] turned out to be 49.8%. For the same molecule, the inhibition result in the experiment with Ehrlich was “Active”. The MST came to 22.5 days in experiment [18], 23 days in experiment [20], 22.33 days in experiment [22] and 23 days in [25].
As to `Nc1ccc2oc(-c3ccccc3)cc(=O)c2c1` [6-AMINOFLAVONE], the IC50 with HeLa [1] was found to be 55.8 µg/mL (≈ 235 µM); in the experiment on HeLa [2] it was 63.6 µg/mL (≈ 268 µM); in the experiment with MDA-MB-435 [3], 78.4 µg/mL (≈ 330 µM); with MDA-MB-435 [5] it was 59.5 µg/mL (≈ 251 µM). The inhibition in vivo at 100 mg/kg/day with Rattus norvegicus [4] was found to be 24.2%.
Take `O=C1/C(=C\c2ccc(Cl)c(Cl)c2)N=C(c2ccccc2)N1c1ccc2oc(-c3ccccc3)cc(=O)c2c1`: the IC50 was 15.2 µg/mL (≈ 28.3 µM) in the experiment with HeLa [1], 16 µg/mL (≈ 29.7 µM) with HeLa [2], 20.1 µg/mL (≈ 37.5 µM) with MDA-MB-435 [3] and 16.9 µg/mL (≈ 31.4 µM) in the experiment on MDA-MB-435 [5]. Besides, the inhibition in vivo at 100 mg/kg/day with Rattus norvegicus [4] was 36.5%.
`CC(C)Cc1ccc(C(C)C(=O)O)cc1` (stereo not drawn) [IBUPROFEN]: in the experiment on Rattus norvegicus [26], the inhibition in vivo at 50 mg/kg is 67.1%.
On to `COc1cccc2c1C(=O)c1c(O)c3c(c(O)c1C2=O)C[C@@](O)(C(=O)CO)C[C@@H]3O[C@H]1C[C@H](N)[C@H](O)[C@H](C)O1.Cl` [DOXORUBICIN HYDROCHLORIDE], for which the Activity was 2.22% in the experiment on HeLa [7], 16.62% in the experiment with HeLa [14], 76.76% in the experiment on HeLa [21] and 4.01% in the experiment on HeLa [24]. Also, the IC50 with MDA-MB-435 [3] is 0.93 µg/mL; in the experiment on MDA-MB-435 [5] it was 0.77 µg/mL.
For the molecule `O=C1/C(=C\c2ccccc2)N=C(c2ccccc2)N1c1ccc2oc(-c3ccccc3)cc(=O)c2c1`, the IC50 in the experiment on HeLa [1] stood at 20.1 µg/mL (≈ 42.9 µM); with HeLa [2], 20.9 µg/mL (≈ 44.6 µM); in the experiment with MDA-MB-435 [3], 26.4 µg/mL (≈ 56.3 µM); in the experiment with MDA-MB-435 [5] it was 24.3 µg/mL (≈ 51.8 µM). The inhibition in vivo at 100 mg/kg/day in the experiment on Rattus norvegicus [4] was found to be 38.2%.
The like results for `O=C1/C(=C\c2ccc(O)cc2)N=C(c2ccccc2)N1c1ccc2oc(-c3ccccc3)cc(=O)c2c1` were, in that order, 16.4 µg/mL (≈ 33.8 µM), 18.9 µg/mL (≈ 39 µM), 21.4 µg/mL (≈ 44.1 µM), 18 µg/mL (≈ 37.2 µM) and 47.6%.
